Measurements reported in patent US20230257398A1, “PYRIMIDINE-BASED TRICYCLIC COMPOUND AND USE THEREOF” (Chia Tai Tianqing Pharmaceutical Group Co., Ltd., priority 2020, published 2023).

Biological target: T1, sGC (Homo sapiens, UniProt Q02108+Q02153)
T1 construct: Preparation of LNCap Cells; endogenous in cells; host or cells: LNCaP cells (14th generation), no transfection described
T1 sequence (Q02153 1-619): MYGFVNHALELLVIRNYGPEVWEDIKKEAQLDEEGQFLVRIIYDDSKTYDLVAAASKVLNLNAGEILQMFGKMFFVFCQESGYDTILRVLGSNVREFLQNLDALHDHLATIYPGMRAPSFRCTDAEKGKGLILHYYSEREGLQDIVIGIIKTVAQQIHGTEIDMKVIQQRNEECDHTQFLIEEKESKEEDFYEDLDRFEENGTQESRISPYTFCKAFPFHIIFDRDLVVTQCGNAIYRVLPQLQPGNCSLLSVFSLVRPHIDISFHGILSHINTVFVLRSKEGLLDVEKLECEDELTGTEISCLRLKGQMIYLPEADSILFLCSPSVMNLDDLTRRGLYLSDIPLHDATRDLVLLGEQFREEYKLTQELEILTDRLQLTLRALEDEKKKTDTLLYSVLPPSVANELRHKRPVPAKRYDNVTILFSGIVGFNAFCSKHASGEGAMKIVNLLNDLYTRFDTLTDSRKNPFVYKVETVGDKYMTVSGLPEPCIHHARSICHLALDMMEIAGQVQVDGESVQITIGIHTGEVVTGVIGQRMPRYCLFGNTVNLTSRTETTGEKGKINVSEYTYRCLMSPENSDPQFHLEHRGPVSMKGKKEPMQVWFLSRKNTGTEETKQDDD
T1 sequence (Q02108 1-690): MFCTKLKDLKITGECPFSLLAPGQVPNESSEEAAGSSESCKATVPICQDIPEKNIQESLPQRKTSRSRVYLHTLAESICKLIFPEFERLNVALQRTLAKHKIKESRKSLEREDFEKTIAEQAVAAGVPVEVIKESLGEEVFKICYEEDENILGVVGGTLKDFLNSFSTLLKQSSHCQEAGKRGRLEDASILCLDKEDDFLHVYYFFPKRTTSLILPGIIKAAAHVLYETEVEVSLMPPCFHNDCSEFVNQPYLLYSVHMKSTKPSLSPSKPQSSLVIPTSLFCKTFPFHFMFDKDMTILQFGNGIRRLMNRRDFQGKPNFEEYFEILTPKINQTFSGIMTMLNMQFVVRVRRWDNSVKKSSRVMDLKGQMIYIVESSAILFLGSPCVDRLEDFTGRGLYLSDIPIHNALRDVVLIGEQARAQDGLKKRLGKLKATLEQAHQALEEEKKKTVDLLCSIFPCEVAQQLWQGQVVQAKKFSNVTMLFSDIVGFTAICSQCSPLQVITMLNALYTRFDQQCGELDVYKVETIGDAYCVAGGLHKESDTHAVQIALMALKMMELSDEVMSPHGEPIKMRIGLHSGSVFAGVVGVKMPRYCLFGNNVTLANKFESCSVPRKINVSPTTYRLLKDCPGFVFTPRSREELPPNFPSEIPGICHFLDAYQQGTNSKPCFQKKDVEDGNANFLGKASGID
Test: lnCap cell-based cGMP expression assay (stimulating activity for sGC)
Conditions: with DETA-NO, 37° C. 30 min, HTRF cGMP
Experimental: I. lnCap Cell-Based cGMP Expression Assay
1) Preparation of Solutions
10% BSA (Bovine Serum Albumin)
10 g of BSA was dissolved in 100 mL of double distilled water (ddH2O) to give 10% BSA.
5 mM DETA (Diethylenetriamine)-NO
10 mg of DETA-NO was weighed out and dissolved in 12.2 mL of double distilled water (ddH2O) to give 5 mM DETA-NO, which was aliquoted and cryopreserved in a freezer at −20° C.
a) To 1 mL of a lysis buffer was added 50 μL of cGMP-D2 (D2-labeled cyclic guanosine monophosphate), and the mixture was well mixed.
b) To 1 mL of a lysis buffer was added 50 μL of anti-cGMP cryptate (Eu^3+ cryptate-labeled anti-cyclic guanosine monophosphate antibody), and the mixture was well mixed.
(1) The compounds were diluted to 5 mM with DMSO. 10 μL of each of the compounds was transferred to a shallow well plate for Echo.
(2) The compounds were gradiently diluted with Echo. Each of the compounds was diluted to obtain 10 concentration gradients, and 50 nL of each of the concentration gradients was added to a 384 microwell plate.
3) Preparation of LNCap Cells
(1) LNCap medium: RPMI1640+10% fetal bovine serum+1% […].
(2) Phosphate buffered saline, pancreatin and the medium used in the process of cell passaging were pre-heated in a water bath at 37° C.
(3) The cells (the 14th generation) were taken out of the 37° C., 5% CO2 incubator, and the old medium was pipetted off the culture flask.
(4) 5 mL of phosphate buffered saline was pipetted into the culture flask to rinse the cells, and then the liquid was discarded.
(5) 3 mL of pancreatin was pipetted into the culture flask. After the culture flask was shaken, the liquid was discarded, and the culture flask was placed in the incubator.
(6) After about 2 min the culture flask was taken out. […] The cell suspension was transferred to a 50 mL centrifuge tube.
(7) 0.7 mL of the cell suspension was pipetted into a counter cup and the cells were counted on a ViCell XR. The remaining cells were centrifuged at 1000 rpm for 5 min, and the supernatant was removed.
(8) The cells were washed by adding 10 mL of the washing buffer and centrifuged at 1000 rpm for 5 min, and the supernatant was removed.
(9) The assay buffer was added to adjust the cell concentration to 1.25×10^6/mL. The cells were added to the microwell plate at 8 μL/well.
4) Formulation and Addition of DETA-NO
(1) 10 μL of 5 mM DETA-NO was added to 1240 μL of the assay buffer and to 1657 μL of the assay buffer to give 40 μM DETA-NO and 30 μM DETA-NO, respectively.
(2) DETA-NO was transferred to the 384 microwell plate at 2 μL/well using Bravo.
(3) The mixtures were centrifuged at 1500 rpm for 5 min. The microwell plate was incubated at 37° C. for 30 min.
5) Preparation of cGMP Standard Curve
(1) 1 mM of the cGMP stock solution was diluted to 10 μM with the assay buffer. Then 4-fold gradient dilution was performed to obtain 11 concentration gradients.
(2) The cGMP dilutions were added to the microwell plate at 10 μL/well.
6) Addition of Detection Reagents and Plate Reading
(1) cGMP-D2 was transferred to the 384 microwell plate at 5 μL/well using Bravo. The mixtures were centrifuged at 1500 rpm for 1 min.
(2) The anti-cGMP cryptate was transferred to the 384 microwell plate at 5 μL/well using Bravo. The mixtures were centrifuged at 1500 rpm for 1 min.
(3) The plate was incubated at room temperature for 1 h.
(4) 665/615 was read using envision.
(1) cGMP standard curve: a standard curve was generated using Graphpad prism based on the cGMP concentrations and 665/615 ratios.
(2) Conversion of HTRF (homogeneous time-resolved fluorescence) ratios (665/615) to cGMP concentrations: in Graphpad prism, the HTRF ratios (665/615) were copied into the ratio column of the cGMP standard curve, and the “Log inhibitor vs response-variable slope” analysis was run with “interpolate” selected to convert the HTRF ratios (665/615) to cGMP concentrations. […]

COC(=O)NC12CCOc3nc(-c4nn(Cc5ccccc5F)c5ncc(F)cc45)nc(c31)NC2=O (stereo not shown) [Compound 049]
MEC: minimum effective concentration to stimulate cGMP production (three times greater than the basal value) in lnCap cells: 126.5 nM

CC12CCNc3nc(-c4nn(Cc5ccccc5F)c5ncc(F)cc45)nc(c31)NC2=O (stereo not shown) [Compound 003]
MEC: minimum effective concentration to stimulate cGMP production (three times greater than the basal value) in lnCap cells: 7.97 nM

CC12CC(=O)Nc3nc(-c4nn(Cc5ccccc5F)c5ncc(F)cc45)nc(c31)NC2=O (stereo not shown) [Compound 001]
MEC: minimum effective concentration to stimulate cGMP production (three times greater than the basal value) in lnCap cells: 6.38 nM

CC12CC(=O)Nc3nc(-c4nn(Cc5c(F)cccc5F)c5ncc(F)cc45)nc(c31)NC(=O)C2 [Compound 010]
MEC: minimum effective concentration to stimulate cGMP production (three times greater than the basal value) in lnCap cells: 51.76 nM

CN1C(=O)CC2(C)C(=O)Nc3nc(-c4nn(Cc5ccccc5F)c5ncc(F)cc45)nc1c32 (stereo not shown) [Compound 029]
MEC: minimum effective concentration to stimulate cGMP production (three times greater than the basal value) in lnCap cells: 37.34 nM

CC12CCNc3nc(-c4nn(Cc5c(F)cccc5F)c5ncc(F)cc45)nc(c31)NC2=O (stereo not shown) [Compound 015]
MEC: minimum effective concentration to stimulate cGMP production (three times greater than the basal value) in lnCap cells: 4.66 nM

CC12CNC(=O)c3nc(-c4nn(Cc5ccccc5F)c5ncc(F)cc45)nc(c31)NC2=O (stereo not shown) [Compound 028]
MEC: minimum effective concentration to stimulate cGMP production (three times greater than the basal value) in lnCap cells: 21.26 nM

O=C1Cn2c(=O)[nH]c3nc(-c4nn(Cc5ccccc5F)c5ncc(F)cc45)nc(c32)N1 [Compound 004]
MEC: minimum effective concentration to stimulate cGMP production (three times greater than the basal value) in lnCap cells: 142.79 nM

CC12CC(=O)Nc3nc(-c4nn(CCC(F)(F)C(F)(F)F)c5ncc(F)cc45)nc(c31)NC(=O)C2 [Compound 012]
MEC: minimum effective concentration to stimulate cGMP production (three times greater than the basal value) in lnCap cells: 118.6 nM

CC12CC(=O)Nc3nc(-c4nn(Cc5ccccc5F)c5ncc(F)cc45)nc(c31)NC2=O (stereo not shown) [Compound 024]
MEC: minimum effective concentration to stimulate cGMP production (three times greater than the basal value) in lnCap cells: 7.59 nM

CC12CCNc3nc(-c4nn(Cc5c(F)cccc5F)c5ncc(F)cc45)nc(c31)NC(=O)C2 (stereo not shown) [Compound 022]
MEC: minimum effective concentration to stimulate cGMP production (three times greater than the basal value) in lnCap cells: 24.9 nM

O=c1[nH]c2nc(-c3nn(Cc4ccccc4F)c4ncc(F)cc34)nc3c2n1CCN3 [Compound 002]
MEC: minimum effective concentration to stimulate cGMP production (three times greater than the basal value) in lnCap cells: 81.22 nM

CC12CC(=O)Nc3nc(-c4nn(CCC(F)(F)C(F)(F)F)c5ncc(F)cc45)nc(c31)NC2=O (stereo not shown) [Compound 016]
MEC: minimum effective concentration to stimulate cGMP production (three times greater than the basal value) in lnCap cells: 17.51 nM

CC12OCCNc3nc(-c4nn(Cc5ccccc5F)c5ncc(F)cc45)nc(c31)NC2=O (stereo not shown) [Compound 039]
MEC: minimum effective concentration to stimulate cGMP production (three times greater than the basal value) in lnCap cells: 28.15 nM

CC12CCC(=O)Nc3nc(-c4nn(Cc5c(F)cccc5F)c5ncc(F)cc45)nc(c31)NC(=O)C2 (stereo not shown) [Compound 011]
MEC: minimum effective concentration to stimulate cGMP production (three times greater than the basal value) in lnCap cells: 178.6 nM

CC12CC(=O)Nc3nc(-c4nn(Cc5c(F)cccc5F)c5ncc(F)cc45)nc(c31)NC2=O (stereo not shown) [Compound 017]
MEC: minimum effective concentration to stimulate cGMP production (three times greater than the basal value) in lnCap cells: 3.46 nM

CC12CCC(=O)Nc3nc(-c4nn(Cc5c(F)cccc5F)c5ncc(F)cc45)nc(c31)NC2=O (stereo not shown) [Compound 013]
MEC: minimum effective concentration to stimulate cGMP production (three times greater than the basal value) in lnCap cells: 3.12 nM

CCNC(=O)OC12CCOc3nc(-c4nn(Cc5ccccc5F)c5ncc(F)cc45)nc(c31)NC2=O (stereo not shown) [Compound 050]
MEC: minimum effective concentration to stimulate cGMP production (three times greater than the basal value) in lnCap cells: 231.7 nM

CN1C(=O)C2(C)CC(=O)Nc3nc(-c4nn(Cc5ccccc5F)c5ncc(F)cc45)nc1c32 (stereo not shown) [Compound 030]
MEC: minimum effective concentration to stimulate cGMP production (three times greater than the basal value) in lnCap cells: 84.34 nM

CC12CCC(=O)Nc3nc(-c4nn(CCC(F)(F)C(F)(F)F)c5ncc(F)cc45)nc(c31)NC(=O)C2 (stereo not shown) [Compound 014]
MEC: minimum effective concentration to stimulate cGMP production (three times greater than the basal value) in lnCap cells: 402.7 nM

CC12CCNc3nc(-c4nn(CCC(F)(F)C(F)(F)F)c5ncc(F)cc45)nc(c31)NC(=O)C2 (stereo not shown) [Compound 023]
MEC: minimum effective concentration to stimulate cGMP production (three times greater than the basal value) in lnCap cells: 26.12 nM

CC12C(=O)Nc3nc(-c4nn(Cc5ccccc5F)c5ncc(F)cc45)nc(c31)NC(=O)C2(F)F (stereo not shown) [Compound 034]
MEC: minimum effective concentration to stimulate cGMP production (three times greater than the basal value) in lnCap cells: 31.53 nM

CC12CC(=O)Nc3nc(-c4nn(Cc5ccccc5F)c5ncc(F)cc45)nc(c31)NC(=O)C2 [Compound 007]
MEC: minimum effective concentration to stimulate cGMP production (three times greater than the basal value) in lnCap cells: 55.54 nM

CC12CCNc3nc(-c4nn(CCC(F)(F)C(F)(F)F)c5ncc(F)cc45)nc(c31)NC2=O (stereo not shown) [Compound 009]
MEC: minimum effective concentration to stimulate cGMP production (three times greater than the basal value) in lnCap cells: 5.8 nM

CC12CCC(=O)Nc3nc(-c4nn(CCC(F)(F)C(F)(F)F)c5ncc(F)cc45)nc(c31)NC2=O (stereo not shown) [Compound 018]
MEC: minimum effective concentration to stimulate cGMP production (three times greater than the basal value) in lnCap cells: 13.12 nM

CC1(C)C(=O)Nc2nc(-c3nn(Cc4ccccc4F)c4ncc(F)cc34)nc3c2C1C(=O)N3 (stereo not shown) [Compound 031]
MEC: minimum effective concentration to stimulate cGMP production (three times greater than the basal value) in lnCap cells: 19.78 nM

CCOC(=O)C12CCOc3nc(-c4nn(Cc5ccccc5F)c5ncc(F)cc45)nc(c31)NC2=O (stereo not shown) [Compound 048]
MEC: minimum effective concentration to stimulate cGMP production (three times greater than the basal value) in lnCap cells: 33.55 nM

CC12CCC(=O)Nc3nc(-c4nn(Cc5ccccc5F)c5ncc(F)cc45)nc(c31)NC(=O)C2 (stereo not shown) [Compound 008]
MEC: minimum effective concentration to stimulate cGMP production (three times greater than the basal value) in lnCap cells: 88.37 nM
